Measurements taken from patent US20070027150A1 (priority 2005, published 2007).

target: His-tagged N-terminal ATP binding domain (amino acid residues 9-236) of HSP90α (Homo sapiens, UniProt P07900); assay: HSP90 inhibitor binding potency: TRF competition binding assay; details: Table I; read-out: Hsp90 IC50 Range
How it was run: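 His-tagged HSP90α N-domain (residues 9-236) incubated 2 h at room temperature with biotinylated radicicol and increasing compound in 50 mM HEPES, 6 mM MgCl2, 20 mM KCl, 0.1% BSA. Bound tracer captured on streptavidin plates, detected with europium anti-His antibody by time-resolved fluorescence; IC50 derived.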

Row | SMILES | IC50
1 | COc1ccc(F)cc1-c1ccccc1C1CC(=O)c2c(C)nc(N)nc2C1 (stereo not shown) [Compound 96, 2-amino-7-(5′-fluoro-2′-methoxy-1,1′-biphenyl-2-yl)-4-methyl-7,8-dihydroquinazolin-5(6H)-one] | < 1000 nM
2 | Cc1nc(N)nc2c1C(=O)CC(C(C)C)C2 (stereo not shown) [Compound 1, 2-amino-7-isopropyl-4-methyl-7,8-dihydroquinazolin-5(6H)-one] | > 10000 nM
3 | Cc1nc(N)nc2c1C(=O)CC(c1ccccc1Oc1cc[nH]c(=O)c1)C2 (stereo not shown) [Compound 167, 2-amino-4-methyl-7-[2-(2-oxo-1,2-dihydro-pyridin-4-yloxy)-phenyl]-7,8-dihydro-6H-quinazolin-5-one] | 1000 to 10000 nM
4 | Cc1nc(N)nc2c1C(=O)CC(c1ccccc1-c1cccc(OC(F)(F)F)c1)C2 (stereo not shown) [Compound 112, 2-amino-4-methyl-7-[3′-(trifluoromethoxy)-1,1′-biphenyl-2-yl]-7,8-dihydroquinazolin-5(6H)-one] | > 10000 nM
5 | Cc1nc(N)nc2c1C(=O)CC(c1ccccc1OC(C)C)C2 (stereo not shown) [Compound 149, 2-amino-7-(2-isopropoxy-phenyl)-4-methyl-7,8-dihydro-6H-quinazolin-5-one] | < 1000 nM
6 | Cc1nc(N)nc2c1C(=O)CC(c1cc(F)ccc1-c1cccnc1F)C2 (stereo not shown) [Compound 88, 2-amino-7-[5-fluoro-2-(2-fluoropyridin-3-yl)phenyl]-4-methyl-7,8-dihydroquinazolin-5(6H)-one] | < 1000 nM
7 | Cc1nc(N)nc2c1C(=O)CC(c1ccccc1-c1ccc(F)cc1)C2 (stereo not shown) [Compound 53, 2-amino-7-(4′-fluoro-1,1′-biphenyl-2-yl)-4-methyl-7,8-dihydroquinazolin-5(6H)-one] | < 1000 nM
8 | Cc1nc(N)nc2c1C(=O)CC(c1ccccc1-c1ccccc1CO)C2 (stereo not shown) [Compound 67, 2-amino-7-[2′-(hydroxymethyl)-1,1′-biphenyl-2-yl]-4-methyl-7,8-dihydroquinazolin-5(6H)-one] | < 1000 nM
9 | Cc1nc(N)nc2c1C(=O)CC(c1ccccc1-c1ccc(F)nc1)C2 (stereo not shown) [Compound 56, 2-amino-7-[2-(6-fluoropyridin-3-yl)phenyl]-4-methyl-7,8-dihydroquinazolin-5(6H)-one] | < 1000 nM
10 | Cc1nc(N)nc2c1C(=O)CC(c1c(Cl)cccc1OCCN1CCN(C)CC1)C2 (stereo not shown) [Compound 154, 2-amino-7-{2-chloro-6-[2-(4-methyl-piperazin-1-yl)-ethoxy]-phenyl}-4-methyl-7,8-dihydro-6H-quinazolin-5-one] | > 10000 nM
11 | COc1cccc(Br)c1C1CC(=O)c2c(C)nc(N)nc2C1 (stereo not shown) [Compound 18, 2-amino-7-(2-bromo-6-methoxy-phenyl)-4-methyl-7,8-dihydro-6H-quinazolin-5-one] | 1000 to 10000 nM
12 | Cc1ccnc(-c2ccccc2C2CC(=O)c3c(C)nc(N)nc3C2)c1 (stereo not shown) [Compound 118, 2-amino-4-methyl-7-[2-(4-methylpyridin-2-yl)phenyl]-7,8-dihydroquinazolin-5(6H)-one] | < 1000 nM
13 | Cc1ccc(F)c(-c2ccccc2C2CC(=O)c3c(C)nc(N)nc3C2)c1 (stereo not shown) [Compound 76, 2-amino-7-(2′-fluoro-5′-methyl-1,1′-biphenyl-2-yl)-4-methyl-7,8-dihydroquinazolin-5(6H)-one] | < 1000 nM
14 | Cc1nc(N)nc2c1C(=O)CC(c1ccccc1-c1cccc(F)c1F)C2 (stereo not shown) [Compound 83, 2-amino-7-(2′,3′-difluoro-1,1′-biphenyl-2-yl)-4-methyl-7,8-dihydroquinazolin-5(6H)-one] | < 1000 nM
15 | Cc1nc(N)nc2c1C(=O)CC(c1ccccc1-c1cccnc1F)C2 (stereo not shown) [Compound 55, 2-amino-7-[2-(2-fluoropyridin-3-yl)phenyl]-4-methyl-7,8-dihydroquinazolin-5(6H)-one] | < 1000 nM
16 | Cc1nc(N)nc2c1C(=O)CC(c1cnccc1-c1ccccc1)C2 (stereo not shown) [Compound 161, 2-amino-4-methyl-7-(4-phenylpyridin-3-yl)-7,8-dihydroquinazolin-5(6H)-one] | < 1000 nM
17 | Cc1nc(N)nc2c1C(=O)CC(c1ccccc1-c1cncc3ccccc13)C2 (stereo not shown) [Compound 100, 2-amino-7-(2-isoquinolin-4-ylphenyl)-4-methyl-7,8-dihydroquinazolin-5(6H)-one] | 1000 to 10000 nM
18 | Cc1cccc(C2CC(=O)c3c(C)nc(N)nc3C2)c1-c1ccccc1 (stereo not shown) [Compound 15, 2-amino-4-methyl-7-(6-methyl-1,1′-biphenyl-2-yl)-7,8-dihydroquinazolin-5(6H)-one] | 1000 to 10000 nM
19 | COc1ncccc1-c1cc(F)ccc1C1CC(=O)c2c(C)nc(N)nc2C1 (stereo not shown) [Compound 99, 2-amino-7-[4-fluoro-2-(2-methoxy-pyridin-3-yl)-phenyl]-4-methyl-7,8-dihydro-6H-quinazolin-5-one] | < 1000 nM
20 | Cc1nc(N)nc2c1C(=O)CC(c1nccn1Cc1ccccc1)C2 (stereo not shown) [Compound 9, 2-amino-7-(1-benzyl-1H-imidazol-2-yl)-4-methyl-7,8-dihydro-6H-quinazolin-5-one] | < 1000 nM
21 | Cc1nc(N)nc2c1C(=O)CC(c1ccccc1Oc1cccc(F)n1)C2 (stereo not shown) [Compound 145, 2-amino-7-{2-[(6-fluoropyridin-2-yl)oxy]phenyl}-4-methyl-7,8-dihydroquinazolin-5(6H)-one] | < 1000 nM
22 | COc1ccc(-c2cccnc2)c(C2CC(=O)c3c(C)nc(N)nc3C2)c1 (stereo not shown) [Compound 71, 2-amino-7-(5-methoxy-2-pyridin-3-ylphenyl)-4-methyl-7,8-dihydroquinazolin-5(6H)-one] | < 1000 nM

same assay, conditions: Table II; read-out: Hsp90 IC50 Range

Row | SMILES | IC50
23 | COc1cccc(-n2ccnc2C2CC(=O)c3c(C)nc(N)nc3C2)n1 (stereo not shown) [Compound 193, 2-amino-7-[1-(6-methoxy-pyridin-2-yl)-1H-imidazol-2-yl]-4-methyl-7,8-dihydro-6H-quinazolin-5-one] | < 1000 nM
24 | CCc1nc(N)nc2c1C(=O)CC(c1ccc(F)cc1-c1cccnc1)C2 (stereo not shown) [Compound 318, 2-amino-4-ethyl-7-(4-fluoro-2-pyridin-3-yl-phenyl)-7,8-dihydro-6H-quinazolin-5-one] | < 1000 nM
25 | COc1nc(-c2cc(F)ccc2[C@@H]2CC(=O)c3c(C)nc(N)nc3C2)ncc1C [Compound 275, (S)-2-amino-7-[4-fluoro-2-(4-methoxy-5-methyl-pyrimidin-2-yl)-phenyl]-4-methyl-7,8-dihydro-6H-quinazolin-5-one] | < 1000 nM
26 | COc1nc(-c2cc(F)ccc2C2CC(=O)c3c(C)nc(N)nc3C2)cnc1Cl (stereo not shown) [Compound 334, 2-amino-7-[2-(5-chloro-6-methoxy-pyrazin-2-yl)-4-fluoro-phenyl]-4-methyl-7,8-dihydro-6H-quinazolin-5-one] | < 1000 nM
27 | COc1nc(-c2cc(F)ccc2C2CC(=O)c3c(C)nc(N)nc3C2)ncc1F (stereo not shown) [Compound 224, 2-amino-7-[4-fluoro-2-(5-fluoro-4-methoxy-pyrimidin-2-yl)-phenyl]-4-methyl-7,8-dihydro-6H-quinazolin-5-one] | < 1000 nM
28 | Cc1nc(N)nc2c1C(=O)CC(c1ccccc1S(=O)(=O)N1CCCC1)C2 (stereo not shown) [Compound 184, 2-amino-4-methyl-7-[2-(pyrrolidine-1-sulfonyl)-phenyl]-7,8-dihydro-6H-quinazolin-5-one] | 1000 to 10000 nM
29 | Cc1nc(N)nc2c1C(=O)CC(c1c(F)cccc1Br)C2 (stereo not shown) [Compound 236, 2-amino-7-(2-bromo-6-fluoro-phenyl)-4-methyl-7,8-dihydro-6H-quinazolin-5-one] | 1000 to 10000 nM
30 | CCc1cccc(-n2ccnc2C2CC(=O)c3c(C)nc(N)nc3C2)n1 (stereo not shown) [Compound 201, 2-amino-7-[1-(6-ethyl-pyridin-2-yl)-1H-imidazol-2-yl]-4-methyl-7,8-dihydro-6H-quinazolin-5-one] | 1000 to 10000 nM
31 | CCc1nc(N)nc2c1C(=O)CC(c1ccccc1)C2 (stereo not shown) [Compound 210, 2-amino-4-ethyl-7-phenyl-7,8-dihydro-6H-quinazolin-5-one] | > 10000 nM
32 | CCOc1ncncc1-c1cc(F)ccc1C1CC(=O)c2c(C)nc(N)nc2C1 (stereo not shown) [Compound 282, 2-amino-7-[2-(4-ethoxy-pyrimidin-5-yl)-4-fluoro-phenyl]-4-methyl-7,8-dihydro-6H-quinazolin-5-one] | < 1000 nM
33 | COc1cccc(-c2cc(F)ccc2[C@@H]2CC(=O)c3c(C)nc(N)nc3C2)n1 [Compound 261, (S)-2-amino-7-[4-fluoro-2-(6-methoxy-pyridin-2-yl)-phenyl]-4-methyl-7,8-dihydro-6H-quinazolin-5-one] | < 1000 nM
34 | COc1nc(-c2cc(F)ccc2C2CC(=O)c3c(C)nc(N)nc3C2)cnc1N (stereo not shown) [Compound 232, 2-amino-7-[2-(5-amino-6-methoxy-pyrazin-2-yl)-4-fluoro-phenyl]-4-methyl-7,8-dihydro-6H-quinazolin-5-one] | < 1000 nM
35 | Cc1nc(N)nc2c1C(=O)CC(c1ccc(Cl)cc1-c1cncnc1)C2 (stereo not shown) [Compound 250, 2-amino-7-(4-chloro-2-pyrimidin-5-yl-phenyl)-4-methyl-7,8-dihydro-6H-quinazolin-5-one] | < 1000 nM
36 | Cc1nc(N)nc2c1C(=O)CC(c1nccn1Cc1ccccn1)C2 (stereo not shown) [Compound 209, 2-amino-4-methyl-7-(1-pyridin-2-ylmethyl-1H-imidazol-2-yl)-7,8-dihydro-6H-quinazolin-5-one] | > 10000 nM
37 | COc1nc(-c2cc(F)ccc2[C@@H]2CC(=O)c3c(C)nc(N)nc3C2)c(C)nc1N [Compound 337, (S)-2-amino-7-[2-(5-amino-6-methoxy-3-methyl-pyrazin-2-yl)-4-fluoro-phenyl]-4-methyl-7,8-dihydro-6H-quinazolin-5-one] | < 1000 nM
38 | COc1ccc(C(F)(F)F)cc1-n1ccnc1C1CC(=O)c2c(C)nc(N)nc2C1 (stereo not shown) [Compound 199, 2-amino-7-[1-(2-methoxy-5-trifluoromethyl-phenyl)-1H-imidazol-2-yl]-4-methyl-7,8-dihydro-6H-quinazolin-5-one] | 1000 to 10000 nM
39 | Nc1nc(O)c2c(n1)CC(c1ccccc1)CC2=O (stereo not shown) [Compound 311, 2-amino-4-hydroxy-7-phenyl-7,8-dihydro-6H-quinazolin-5-one] | > 10000 nM
40 | Cc1nc(N)nc2c1C(=O)CC(c1ccc(F)cc1-c1cncc(Cl)n1)C2 (stereo not shown) [Compound 219, 2-amino-7-[2-(6-chloro-pyrazin-2-yl)-4-fluoro-phenyl]-4-methyl-7,8-dihydro-6H-quinazolin-5-one] | < 1000 nM
